{"source": "paper PMC4138991", "about": "“Building a Better Dynasore: The Dyngo Compounds Potently Inhibit Dynamin and Endocytosis” (Traffic (Copenhagen, Denmark), 2013)", "key": {"[1]": {"target": "native sheep brain dynamin I (Ovis aries, UniProt A0ACI6PDC7)", "sequence (A0ACI6PDC7 entry or part of it)": "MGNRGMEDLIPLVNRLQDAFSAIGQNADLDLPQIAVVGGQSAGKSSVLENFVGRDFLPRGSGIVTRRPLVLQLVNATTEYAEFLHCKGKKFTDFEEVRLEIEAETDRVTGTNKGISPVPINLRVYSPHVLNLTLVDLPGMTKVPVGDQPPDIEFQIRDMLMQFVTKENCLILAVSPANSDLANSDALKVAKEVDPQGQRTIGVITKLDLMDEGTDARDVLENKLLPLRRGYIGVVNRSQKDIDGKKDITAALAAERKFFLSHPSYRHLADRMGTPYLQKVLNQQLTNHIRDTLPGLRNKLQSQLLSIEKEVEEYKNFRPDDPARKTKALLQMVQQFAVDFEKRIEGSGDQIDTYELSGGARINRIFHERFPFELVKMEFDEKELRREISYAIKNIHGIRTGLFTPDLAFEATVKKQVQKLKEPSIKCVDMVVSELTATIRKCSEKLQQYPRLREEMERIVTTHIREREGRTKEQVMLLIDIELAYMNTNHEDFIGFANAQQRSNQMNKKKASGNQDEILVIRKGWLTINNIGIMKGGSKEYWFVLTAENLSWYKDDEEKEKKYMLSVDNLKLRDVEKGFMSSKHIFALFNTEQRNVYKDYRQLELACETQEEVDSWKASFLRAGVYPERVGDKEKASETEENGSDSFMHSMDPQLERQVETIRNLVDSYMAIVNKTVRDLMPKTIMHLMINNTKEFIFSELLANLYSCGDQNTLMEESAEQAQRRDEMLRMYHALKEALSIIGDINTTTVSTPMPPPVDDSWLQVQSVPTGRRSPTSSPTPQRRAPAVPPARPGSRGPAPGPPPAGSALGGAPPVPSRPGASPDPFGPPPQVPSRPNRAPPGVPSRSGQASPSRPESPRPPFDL", "test": "PS liposome-stimulated (helical) dynamin I GTPase assay (Malachite Green)", "type": "biochemical", "details": "GTP 50–250 μM, 4a 0.5–6 μM, 17 nM dynamin I, Lineweaver–Burke", "from_the_text": "Recombinant dynamin I was used only for the data in Table 2. The dynamin antibodies were from: Dynamin I—in‐house YF2 antibodies, raised in rabbits against two different synthetic peptides: dynamin I 629‐647 ([…]) and dynamin I 765–778 ([…]), used at 1/2000 dilution, as previously described 53; Dynamin II—Santa Cruz (C‐18, sc‐6400, used at 1/1000) and Dynamin III—Santa Cruz (P‐13, sc‐69472, used at 1/500 dilution).\nThe Malachite Green colorimetric GTPase assay was as described 10. Dynamin I activity was measured in its SAI activity state or was stimulated by three different methods. As each stimulus activates dynamin to different extents, each assay required different dynamin concentrations. First, maximal dynamin activity was stimulated by sonicated PS liposomes 10. […] Finally, dynamin (500 nM) SAI activity was measured using high concentrations of dynamin, which promote its cooperative self‐assembly into rings (but not helices) 26. […] After the Vmax and Km values were determined, the data were transformed using the Lineweaver–Burke equation, 1/v = 1/Vmax + (Km/Vmax)(1/[S])."}, "cultured CGNs": {"tested_on": "cultured CGNs", "test": "SV turnover by FM1-43 loading/unloading in cultured cerebellar granule neurons", "type": "cell-based, rat", "details": "30 μM, 15 min preincubation", "protocol": "Granule neuron cultures were prepared from the cerebella of 7‐day‐old rat pups as previously described 57. In all experiments, neurons were used between 8 and 10 days in vitro.\nNeuronal cultures were removed from culture medium and left for 10 min in incubation medium [170 mM NaCl, 3.5 mM KCl, 0.4 mM KH2PO4, 20 mM TES (N‐tris[hydroxy‐methyl]‐methyl‐2‐aminoethane‐sulfonic acid), 5 mM NaHCO3, 5 mM glucose, 1.2 mM Na2SO4, 1.2 mM MgCl2 and 1.3 mM CaCl2, pH 7.4]. Cultures were then mounted in a Warner imaging chamber (RC‐21BRFS). Invaginating membrane was loaded with FM1‐43 (10 μM) by evoking SV turnover with a brief train of action potentials (80 Hz for 10 seconds, 100 mA and 1‐millisecond pulse width, delivered using platinum wires embedded in the imaging chamber). Dye kept present for 1 min after stimulation to ensure all retrieving membrane was labeled (S1 loading). After a 10‐min rest period, accumulated dye was unloaded from nerve terminals using two consecutive maximal stimuli with incubation media supplemented with 50 mM KCl (50 mM NaCl removed to maintain osmolarity). The fluorescence decrease due to dye loss provides an estimate of the total number of synaptic vesicles turned over during stimulation (S1). After a 20‐min rest period the S1 protocol was repeated (S2 loading and unloading). […]"}, "[2]": {"target": "dynamin I binding to SH3 domains of grb2, amphiphysin I, endophilin I (Homo sapiens, UniProt Q05193)", "sequence (Q05193 whole entry, the tested form may be a part)": "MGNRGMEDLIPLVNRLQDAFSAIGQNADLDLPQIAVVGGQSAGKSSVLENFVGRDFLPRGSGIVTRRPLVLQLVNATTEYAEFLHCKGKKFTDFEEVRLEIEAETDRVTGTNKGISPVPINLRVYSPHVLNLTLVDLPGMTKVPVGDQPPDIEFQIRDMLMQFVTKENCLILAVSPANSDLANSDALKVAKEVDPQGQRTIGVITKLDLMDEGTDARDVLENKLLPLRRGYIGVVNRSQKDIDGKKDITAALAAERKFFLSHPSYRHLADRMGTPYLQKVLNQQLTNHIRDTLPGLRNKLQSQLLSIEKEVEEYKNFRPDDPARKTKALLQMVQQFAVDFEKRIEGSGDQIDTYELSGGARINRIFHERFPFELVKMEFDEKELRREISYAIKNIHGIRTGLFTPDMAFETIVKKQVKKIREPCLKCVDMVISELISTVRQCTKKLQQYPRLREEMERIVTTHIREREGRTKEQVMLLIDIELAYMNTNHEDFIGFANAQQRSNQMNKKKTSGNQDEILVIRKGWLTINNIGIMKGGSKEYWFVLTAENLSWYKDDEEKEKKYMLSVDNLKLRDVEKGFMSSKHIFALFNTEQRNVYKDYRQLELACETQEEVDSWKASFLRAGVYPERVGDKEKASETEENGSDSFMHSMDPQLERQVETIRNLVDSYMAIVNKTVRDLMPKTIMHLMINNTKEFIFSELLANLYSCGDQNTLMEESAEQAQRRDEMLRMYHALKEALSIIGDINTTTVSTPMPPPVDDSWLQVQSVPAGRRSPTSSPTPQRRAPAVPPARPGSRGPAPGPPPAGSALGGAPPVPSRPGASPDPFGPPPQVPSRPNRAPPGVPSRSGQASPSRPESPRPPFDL", "test": "Pull-down of dynamin I with SH3 domains", "details": "10, 40 and 100 µM 4a", "protocol": "Recombinant human dynamin I was expressed in insect cells (SF21). Cells were lysed and sonicated in 20 mM HEPES buffer with 250 mM NaCl. The lysates were diluted in 20 mM HEPES buffer alone to obtain a final 50 mM NaCl concentration. This diluted lysate was used for pull-downs with 6 µg of GST-amphiphysin1 SH3, GST-endophilin SH3 or GST-grb2 SH3 (all recombinantly expressed in bacteria) immobilised on glutathione sepharose beads. Incubations were done in the presence or absence of 10, 40 and 100 µM 4a for 1 hr at 10°C. The GSH beads were then washed three times with ice cold PBS and the bound proteins were separated on 12% SDS-PAGE gels and visualised using Coomassie Blue."}}, "note": "Entries after “also recorded” stand apart in the source; their conditions may differ."}
{"smiles": "O=C(N/N=C/c1cc(O)c(O)cc1O)c1cc2ccccc2cc1O", "note": "[4a, (E)-3-Hydroxy-N'-(2,4,5-trihydroxybenzylidene) -2-naphthohydrazide]", "values": [{"measurement": "kinetics of inhibition with respect to GTP", "setting": "[1]", "value": "non‐competitive inhibitor"}, {"measurement": "FM1-43 unloading (SV exocytosis)", "setting": "cultured CGNs", "value": "did not have a significant acute effect"}, {"measurement": "effect on dynamin I binding to SH3 domains", "setting": "[2]", "value": "did not disrupt the binding; also recorded: no effect"}]}
